{"source": "patent US9072693B2", "about": "(priority 2005, dated 2015)", "origin": "cited, not measured here", "key": {"women with PMS [1]": {"test_system": "women with PMS", "details": "higher doses once or twice during the luteal phase (Miner 2002)"}, "women with PMS [2]": {"test_system": "women with PMS"}, "psoriatic plaques": {"test_system": "psoriatic plaques", "details": "topical (Lu et al. 1996)"}}, "data": [{"smiles": "CNCCC(Oc1ccc(C(F)(F)F)cc1)c1ccccc1", "note": "(stereo not drawn) [fluoxetine]", "values": [{"measurement": "effect on PMS symptomatology", "setting": "women with PMS [1]", "value": "effective in reducing symptomatology"}]}, {"smiles": "C=C1CC[C@H](O)C/C1=C/C=C1\\CCC[C@]2(C)[C@@H]([C@H](C)CCCC(C)C)CC[C@@H]12", "note": "[cholecalciferol]", "values": [{"measurement": "safety", "setting": "10,000 IU daily for 5 months (Heaney)", "value": "safe"}, {"measurement": "daily dose at which toxicity occurs", "setting": "oral ingestion, daily (Vieth R)", "value": "40,000 IU"}]}, {"smiles": "O=C([O-])[O-].[Ca+2]", "note": "[calcium, calcium carbonate]", "values": [{"measurement": "reduction of overall PMS symptoms", "setting": "women with PMS [2]; a number of studies, all 4 major categories of PMS", "value": 50, "unit": "%"}, {"measurement": "overall reduction in total symptom scores compared to placebo", "setting": "women with PMS [2]; elemental calcium 1200 mg per day as calcium carbonate, within 3 months of therapy, premenopausal women 18-45 years", "value": 48, "unit": "%"}]}, {"smiles": "C=C1/C(=C\\C=C2/CCC[C@]3(C)[C@@H]([C@H](C)CCCC(C)(C)O)CC[C@@H]23)C[C@@H](O)C[C@@H]1O", "note": "[Calcitriol]", "values": [{"measurement": "effect in psoriatic plaques", "setting": "psoriatic plaques", "value": "decrease keratinocyte proliferation, normalize keratinocyte differentiation and decrease immune activation in plaques"}]}]}
